This note sets out measurements from patent publication US9550796B2, “Pyrrolopyrrolone derivatives and their use as BET inhibitors” (NOVARTIS AG, priority 2013, dated 2017).

Structures are written as SMILES.

The target in one test is BRD3 (Homo sapiens (Human), UniProt Q15059). Put plainly: TR-FRET in-vitro binding assay for BRD3. To be noted: 45 nM His-Brd3(20-477), acetyl-histone H4 (AcK 5, 8, 12, 16) peptide. How it is done: (§1) TR-FRET In-Vitro Binding Assays for BRD2, BRD3, and BRD4: All assays were performed in 384-well microtiter plates. […] Liquid handling and incubation steps were done on an Innovadyne Nanodrop Express equipped with a robotic arm (Thermo CatX, Perkin Elmer/Caliper Twister II) and an incubator (Liconic STX40, Thermo Cytomat 2C450). The assay plates were prepared by addition of 50 nl per well of compound solution in 90% DMSO HummingBird nanodispenser (Zinsser Analytic). […] Reactions were incubated at 30° C. for 35 minutes. […] After 35 minutes incubation at 30° C., plates were measured in a Perkin Elmer EnVision multilabel reader. […] The stock solutions were stored at […] if not used immediately. For the test procedure the vials were defrosted and identified by a scanner whereby a working sheet was generated that guided the subsequent working steps. Compound dilutions were made in 96 well plates. This format enabled the assay of maximally […] at 8 concentrations (single points) including 4 reference compounds, if desired (known BET inhibitors from the prior art, for this and other assays of the type disclosed herein). The dilution protocol included the production of “pre-dilution plates”, “master plates” and “assay plates”. Polypropylene 96-well plates were used as pre-dilution plates. […] All dilution steps were done on a HamiltonSTAR robot. […] Identical “assay plates” were then prepared by pipetting 50 nL each of compound dilutions of the “master plates” into 384-well “assay plates” by means of a HummingBird 384-channel dispenser. These plates were used directly for the assay which was performed in a total volume of 13.55 μL.
Chain of BRD3 (Q15059 20-477): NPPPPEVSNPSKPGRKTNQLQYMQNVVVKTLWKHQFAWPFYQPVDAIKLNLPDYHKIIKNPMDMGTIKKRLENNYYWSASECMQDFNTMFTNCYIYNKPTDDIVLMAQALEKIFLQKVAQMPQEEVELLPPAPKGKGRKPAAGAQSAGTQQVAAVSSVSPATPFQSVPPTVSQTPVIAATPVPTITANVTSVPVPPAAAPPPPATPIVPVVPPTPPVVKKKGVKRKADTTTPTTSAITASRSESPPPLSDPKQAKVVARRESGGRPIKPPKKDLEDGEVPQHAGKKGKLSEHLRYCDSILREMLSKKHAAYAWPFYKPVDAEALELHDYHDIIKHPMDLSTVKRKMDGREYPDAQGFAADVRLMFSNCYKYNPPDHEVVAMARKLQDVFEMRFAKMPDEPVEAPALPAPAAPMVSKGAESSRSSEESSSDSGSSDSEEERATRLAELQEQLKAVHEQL
For orientation: Time-resolved FRET reads energy transfer from a long-lived donor to a nearby acceptor.

In another test the test system is THP-1. Put plainly: Cell growth inhibition assay (CellTiter-Glo), THP-1. In kind it is cell-based, human. To be noted: THP-1 cells, 4 days; for GI50: Homo sapiens, 96 h, half-maximal growth inhibition; for THP-1 TGI: total growth inhibition. How it is done: (§2) Cell Growth Inhibition Assay
(§3) The human leukemia cell lines MV-4-11, THP-1 and K-562 were employed to characterize the effect of BET inhibitors on cellular proliferation and viability. Cells were obtained from the American Type Culture Collection (ATCC) and cultured at 37° C. in a humidified 5% CO2 incubator in the following media: MV-4-11: DMEM high glucose (Animed #1-26F01-I), 10% FCS (Animed #2-01F26-I), 4 mM L-Glutamine (Animed #5-10K50), 1 mM Sodium Pyruvate (Animed # G03625P), 1× Penicillin-Streptomycin (Animed # F12478P); K-562: Iscove's MEM (Animed #1-28F16-I), 10% FCS (Animed #2-01F26-I), 4 mM L-Glutamine (Animed #5-10K50), 1× Penicillin-Streptomycin (Animed # F12478P); THP-1: RPMI-1640 (Animed #1-41F01-I), 10% FCS (Animed #2-01F26-I), 2 mM L-Glutamine (Animed #5-10K50), 10 mM HEPES (Animed #5-31F100), 1 mM Sodium Pyruvate (Animed # G03625P), 1× Penicillin-Streptomycin (Animed # F12478P). The AML lines MV-4-11 and THP-1 are very sensitive to BET inhibitors and show massive cell death upon BET inhibition (Zuber et al., Nature, 478 (2011), 524-8). Compound-mediated suppression of cell proliferation/viability was assessed by quantification of cellular ATP levels using the CellTiter-Glo (CTG) reagent (Promega). Briefly, cells were seeded in 20 μl fresh medium into 384-well plates, followed by addition of 5 μL medium containing compound dilutions at 5-fold their final intended concentration. Dose-response effects were assessed by 3-fold serial dilutions of the test compound, starting at 10 μM. Following incubation of the cells for 4 days at 37° C. and 5% CO2, the effect of inhibitors on cell viability was quantified following addition of 20 μl CTG and luminescence quantification (integration time: 100 ms) as per vendor manual, using a correspondingly equipped Tecan M200 multi-mode platereader (TECAN, Switzerland). For data analysis, the assay background value determined in wells containing medium, but no cells, was subtracted from all data points. To enable differentiation of cytotoxic from cytostatic compounds, the number of viable cells is assessed relative to that observed at the time of compound addition using a separate cell plate (day 0). The effect of a particular test compound concentration on cell proliferation/viability is expressed as percentage of the background- and day 0-corrected luminescence reading obtained for cells treated with vehicle only (DMSO, 0.1% final concentration), which is set as 100%, whereas that luminescence reading for wells containing medium is set as −100%. Compound concentrations leading to half-maximal (IC50) and total growth inhibition (TGI) were determined using standard four parameter curve fitting.

Another test has as its target BRD4 (Homo sapiens (Human), UniProt O60885). The test is described as follows: TR-FRET in-vitro binding assay for BRD4. To be noted: 45 nM His-Brd4(44-477), acetyl-histone H4 (AcK 5, 8, 12, 16) peptide. How it is done:
as §1

For the next test, the system named is K-562. Put plainly: Cell growth inhibition assay (CellTiter-Glo), K-562. To be noted: K-562 cells, 4 days; for GI50: Homo sapiens, K562, 96 h, half-maximal growth inhibition; for K-562 TGI: total growth inhibition. In kind it is cell-based, human. How it is done: as §2, §3
In general terms: ATP-based viability assays read luminescence as a measure of living cells.

The test system of a further test is MV-4-11. Put plainly: Cell growth inhibition assay (CellTiter-Glo), MV-4-11. Particulars: MV-4-11 cells, 4 days; for GI50: Homo sapiens, MV4-11, 96 h, half-maximal growth inhibition; for MV-4-11 TGI: total growth inhibition. Type of test: cell-based, human. How it is done: as §2, §3
Another test concerns the target CREBBP (Homo sapiens (Human), UniProt Q92793). Put plainly: AlphaScreen in-vitro binding assay for CREBBP. Particulars: 324 nM His-CREBBP (1081-1197), acetyl-histone H4 (AcK 5, 8, 12) peptide. How it is done:
AlphaScreen In-Vitro Binding Assay for CREBBP
In order to assess bromodomain selectivity, we set up a binding assay using the bromodomain encoded by the CREBBP gene. […] The assay was started by stepwise addition of 4.5 μL per well of bromo domain protein (50 mM HEPES, pH 7.5, 0.005% Tween20, 0.02% BSA, 150 mM NaCl, 324 nM His-CREBBP (1081-1197) (custom production at Viva Biotech Ltd.)) and 4.5 μL per well of peptide solution (50 mM HEPES, pH 7.5, 0.005% Tween20, 0.02% BSA, 150 mM NaCl, 120 nM acetyl-histone H4 (AcK 5, 8, 12) (Biosyntan GmbH)). Reactions were incubated at 30° C. for 35 minutes. Subsequently 4.5 μL per well detection mix (50 mM HEPES, pH 7.5, 0.005% Tween20, 0.02% BSA, 150 mM NaCl, 45 μg/ml Ni-chelate acceptor beads, 45 μg/mL streptavidin-donor beads) (Perkin Elmer)) were added. After 60 minutes incubation at room temperature, plates were measured in a Perkin Elmer EnVision multilabel reader. IC50 values were determined from percent inhibition values at different compound concentrations by non-linear regression analysis.
Test compounds were dissolved in DMSO (10 mM) and transferred into 1.4 mL flat bottom or V-shaped Matrix tubes carrying a unique 2D matrix. The stock solutions were stored at […] if not used immediately. For the test procedure the vials were defrosted and identified by a scanner whereby a working sheet was generated that guided the subsequent working steps. Compound dilutions were made in 96 well plates. This format enabled the assay of maximally […] at 8 concentrations (single points) including 4 reference compounds, if desired (known BET inhibitors from the prior art, for this and other assays of the type disclosed herein). The dilution protocol included the production of “pre-dilution plates”, “master plates” and “assay plates”.
Polypropylene 96-well plates were used as pre-dilution plates. A total of 4 pre-dilution plates were prepared including 10 test compounds each on the plate positions A1-A10, one standard compound at A11 and one DMSO control at […]. All dilution steps were done on a HamiltonSTAR robot.
30 μL of individual compound dilutions including standard compound and controls of the 4 “pre-dilution plates” were transferred into a 384-well “master plate” including the following concentrations 10000, […], 1000, 300, 100, 30, 10 and 3 μM, respectively in 90% of DMSO.
Identical “assay plates” were then prepared by pipetting 50 nL each of compound dilutions of the “master plates” into 384-well “assay plates” by means of a HummingBird 384-channel dispenser. These plates were used directly for the assay which was performed in a total volume of 13.55 μL.

Chain of CREBBP (Q92793 1081-1197): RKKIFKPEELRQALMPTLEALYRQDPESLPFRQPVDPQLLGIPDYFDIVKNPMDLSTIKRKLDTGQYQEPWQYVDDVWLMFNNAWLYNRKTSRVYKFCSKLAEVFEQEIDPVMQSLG

Consider `Cc1cn(C)c2c1C(=O)N(c1cc(C)c3nnc(C(F)F)n3c1)C2c1ccc(Cl)cc1` (stereo not drawn) [Example 107, 6-(4-chlorophenyl)-5-(3-(difluoromethyl)-8-methyl-[1,2,4]triazolo[4,3-a]pyridin-6-yl)-1,3-dimethyl-5,6-dihydropyrrolo[3,4-b]pyrrol-4(1H)-one], for which the IC50 (usually the midpoint of a concentration-inhibition curve) at BRD3 amounted to 21 nM; at BRD4, 17 nM; at CREBBP, 27.9 µM. The GI50 – broadly, the concentration that inhibits growth by half – came out at 15.4 nM in the test on THP-1, 197 nM with K-562 and 7.2 nM with MV-4-11. In addition, the “THP-1 TGI” value in the test on THP-1 turned out to be 0.022 µM. The “K-562 TGI” value in the test with K-562 is >10 µM. Further, the “MV-4-11 TGI” value in the test on MV-4-11 was 0.02295 µM.

As to `CNC(=O)c1cn(C)c2c1C(=O)N(c1cc(C)c3nnc(C(F)F)n3n1)C2c1ccc(Cl)cc1` (stereo not drawn) [Example 108, 6-(4-chlorophenyl)-5-(3-(difluoromethyl)-8-methyl-[1,2,4]triazolo[4,3-b]pyridazin-6-yl)-N,1-dimethyl-4-oxo-1,4,5,6-tetrahydropyrrolo[3,4-b]pyrrole-3-carboxamide], the IC50 was 19 nM on BRD3, 16 nM on BRD4 and > 37 µM on CREBBP. Besides, the GI50 amounted to 32.3 nM in the test with THP-1, 322 nM in the test on K-562 and 43.2 nM in the test with MV-4-11. Moreover, in the test on THP-1, the “THP-1 TGI” value turned out to be 0.07275 µM. For the same compound, the “K-562 TGI” value with K-562 is >10 µM. For the same compound, in the test on MV-4-11, the “MV-4-11 TGI” value was found to be 0.07835 µM.

With `Cc1cc(N2C(=O)c3ccn(C)c3C2c2ccc(Cl)cc2)nn2c(C)nnc12` (stereo not drawn) [Example 131, 6-(4-chlorophenyl)-5-(3,8-dimethyl-[1,2,4]triazolo[4,3-b]pyridazin-6-yl)-1-methyl-5,6-dihydropyrrolo[3,4-b]pyrrol-4(1H)-one], the IC50 at BRD3 is 27 nM; on BRD4 it was 33 nM; at CREBBP, > 37 µM. The GI50 in the test with THP-1 worked out at 9.76 nM; in the test on K-562 it was 67.1 nM; in the test on MV-4-11, 9.21 nM. Also, the “THP-1 TGI” value in the test with THP-1 worked out at 0.03025 µM. For the same compound, in the test on K-562, the “K-562 TGI” value is >10 µM. Besides, the “MV-4-11 TGI” value in the test on MV-4-11 is 0.0215 µM.

Take `Cc1cc(N2C(=O)c3c(C4CN(C)C4)cn(C)c3C2c2ccc(Cl)cc2)cn2c(C)nnc12` (stereo not drawn) [Example 118, 6-(4-chlorophenyl)-5-(3,8-dimethyl-[1,2,4]triazolo[4,3-a]pyridin-6-yl)-1-methyl-3-(1-methylazetidin-3-yl)-5,6-dihydropyrrolo[3,4-b]pyrrol-4(1H)-one]: the values for the IC50 on BRD3, at BRD4 and on CREBBP were 22 nM, 21 nM and 32.3 µM, respectively. In addition, the GI50 in the test on THP-1 was determined as 956 nM; with K-562 it was 3830 nM; in the test with MV-4-11, 374 nM. For the same compound, the “THP-1 TGI” value with THP-1 was found to be 1.81 µM. Besides, the “K-562 TGI” value in the test on K-562 is >10 µM. Besides, the “MV-4-11 TGI” value in the test on MV-4-11 came out at 0.5915 µM.

Consider `Cc1cc(N2C(=O)c3c(C4CNC4)cn(C)c3C2c2ccc(Cl)cc2)nc2c1nnn2C` (stereo not drawn) [Example 130, 3-(azetidin-3-yl)-6-(4-chlorophenyl)-5-(3,7-dimethyl-3H-[1,2,3]triazolo[4,5-b]pyridin-5-yl)-1-methyl-5,6-dihydropyrrolo[3,4-b]pyrrol-4(1H)-one], for which the IC50 on BRD3 was 13 nM; on BRD4, 12 nM; at CREBBP it was 12.8 µM. Further, the GI50 with THP-1 was 12.9 nM; with K-562, 76.3 nM; in the test with MV-4-11, < 3 nM. In the test on THP-1, the “THP-1 TGI” value came to 0.031 µM. The “K-562 TGI” value with K-562 was found to be 3.5 µM. The “MV-4-11 TGI” value in the test on MV-4-11 came out at 0.00621 µM.

For `Cc1cc(N2C(=O)c3cc(C4CCOCC4)n(C)c3C2c2ccc(Cl)cc2)cn2c(C)nnc12` (stereo not drawn) [Example 121, 6-(4-chlorophenyl)-5-(3,8-dimethyl-[1,2,4]triazolo[4,3-a]pyridin-6-yl)-1-methyl-2-(tetrahydro-2H-pyran-4-yl)-5,6-dihydropyrrolo[3,4-b]pyrrol-4(1H)-one], the IC50 on BRD3 was 44 nM; on BRD4, 56 nM; on CREBBP, 0.64 µM. For the same compound, the GI50 in the test on THP-1 is 44.7 nM; with K-562 it was 164 nM; with MV-4-11, 54.9 nM. Also, the “THP-1 TGI” value with THP-1 turned out to be 0.0862 µM. Also, the “K-562 TGI” value in the test on K-562 is >10 µM. In addition, in the test on MV-4-11, the “MV-4-11 TGI” value came out at 0.0893 µM.
